Consider 37 molecules from ChEMBL document CHEMBL3352299, “Antiproliferative 4-(1,2,4-oxadiazol-5-yl)piperidine-1-carboxamides, a new tubulin inhibitor chemotype” (Bioorg Med Chem Lett, 2014).

The term GI50 denotes the concentration that inhibits growth by half.

For one assay, the system named is DU-145. Put plainly: Antiproliferative activity against human DU145 cells after 3 days by fluorescence assay. It counts as functional. As to conditions: DU-145, 72 h.
For the molecule `Cc1cccc(-c2noc(C3CCN(C(=O)NCc4ccccc4)CC3)n2)c1`, halving of growth (GI50) required 1200 nM.

Molecule `O=C(NCc1ccsc1)N1CCC(c2nc(-c3ccc(F)cc3)no2)CC1` showed a GI50 of 650 nM. Against the preceding molecule, the GI50 is about 1.8-fold lower.

Molecule `O=C(NCc1ccccc1)N1CCC(c2nc(Cc3ccccc3)no2)CC1` gave a GI50 of 760 nM. Same read-out and setting: under `O=C(NCCc1c[nH]c2ccccc12)N1CCC(c2nc(-c3ccc(F)cc3)no2)CC1` stands 9800 nM. Still for that read-out and setting: under `O=C(NCc1ccoc1)N1CCC(c2nc(-c3ccc(F)cc3)no2)CC1` stands 1100 nM; under `O=C(N1CCC(c2nc(-c3ccc(F)cc3)no2)CC1)N1CCc2ccccc2C1`, 21000 nM. Same read-out and setting: the value for `CN(Cc1ccco1)C(=O)N1CCC(c2nc(-c3ccc(F)cc3)no2)CC1` was 17000 nM; that for `O=C(NCc1ccccc1)N1CCC(c2nc(COc3ccccc3)no2)CC1` was 520 nM; that for `O=C(NCc1cccs1)N1CCC(c2nc(-c3ccc(F)cc3)no2)CC1` was 1700 nM. The molecule `O=C(NCc1ccsc1)N1CCC(c2nc(Cc3ccccc3)no2)CC1` registered a GI50 of 120 nM.

As for `Cc1cc(CNC(=O)N2CCC(c3nc(-c4ccc(F)cc4)no3)CC2)nn1C`, the GI50 is 940 nM.

Take `O=C(NCc1ccsc1)N1CCC(c2nc(COc3ccccc3)no2)CC1`: it took 1700 nM to inhibit growth by half (GI50). Still for that read-out and setting: under `Cc1cc(CNC(=O)N2CCC(c3nc(COc4ccccc4)no3)CC2)nn1C` stands 2800 nM; under `O=C(NCc1ccsc1)N1CCC(c2nc(Cc3ccccc3)no2)C1` (configuration not stated), 6500 nM. Still for that read-out and setting: under `O=C(NCc1ccc2c(c1)OCO2)N1CCC(c2nc(-c3ccc(F)cc3)no2)CC1` stands 1300 nM; under `O=C(NCc1ccco1)N1CCC(c2nc(-c3ccccc3)no2)CC1`, 6000 nM; under `Cc1cc(CNC(=O)N2CCC(c3nc(Cc4ccccc4)no3)CC2)nn1C`, 950 nM. Same read-out and setting: under `O=C(NCc1ccccc1)N1CCC(c2nc(-c3ccc(F)cc3Cl)no2)CC1` stands 2900 nM.

As to `O=C(NCCc1ccccc1)N1CCC(c2nc(-c3ccc(F)cc3)no2)CC1`, the GI50 came out at 13600 nM. This GI50 lies about 4.7-fold higher than the previous one. On the same count and under the same terms, under `Cc1ccccc1-c1noc(C2CCN(C(=O)NCc3ccccc3)CC2)n1` stands 12300 nM; under `O=C(NCc1ccccc1)N1CCC(c2nc(CCN3CCOCC3)no2)CC1`, 11200 nM; under `O=C(NCc1ccccc1)N1CCC(c2nc(CCN3CCc4ccccc4C3)no2)CC1`, 8600 nM.

For the molecule `O=C(NCc1ccco1)N1CCC(c2nc(-c3ccc(F)cc3)no2)CC1`, the GI50 was determined as 3300 nM. `COc1cc(OC)cc(-c2noc(C3CCN(C(=O)NCc4ccccc4)CC3)n2)c1` returned a GI50 of 4400 nM. The GI50 values of the last two molecules are within 1.5-fold of each other.

The test system of another assay is DU-145. The experiment in a line: Antiproliferative activity against human DU145 cells at 50 uM after 3 days by fluorescence assay. The settings on record: DU-145, 72 h, read-out: GI. It counts as functional.
In the case of `COCCNC(=O)N1CCC(c2nc(-c3ccc(F)cc3)no2)CC1`, the inhibition of growth at 50 µM is below 20%. Still for that read-out and setting: the value for `O=C(NCc1ccsc1)N1CCCCC1c1nc(Cc2ccccc2)no1` (configuration not stated) was below 20%; that for `C#CCNC(=O)N1CCC(c2nc(-c3ccc(F)cc3)no2)CC1` was below 20%; that for `COC(=O)CNC(=O)N1CCC(c2nc(-c3ccc(F)cc3)no2)CC1` was below 20%. Regarding `O=C(N1CCC(c2nc(-c3ccc(F)cc3)no2)CC1)N1CCc2ccccc21`, the inhibition of growth at 50 µM is below 20%. In the case of `O=C(N1CCOCC1)N1CCC(c2nc(-c3ccc(F)cc3)no2)CC1`, the inhibition of growth at 50 µM was below 20%. The same measure, in the same setting: under `O=C(NCC1CC1)N1CCC(c2nc(-c3ccc(F)cc3)no2)CC1` stands below 20%; under `O=C(NCc1ccsc1)N1CCCC(c2nc(Cc3ccccc3)no2)C1` (configuration not stated), below 20%; under `O=C(N1CCC(c2nc(-c3ccc(F)cc3)no2)CC1)N1CCCc2ccccc21`, below 20%. In the case of `O=C(N1CCCCC1)N1CCC(c2nc(-c3ccc(F)cc3)no2)CC1`, the inhibition of growth at 50 µM is below 20%. Same read-out and setting: under `CC(C)Cc1noc(C2CCN(C(=O)NCc3ccccc3)CC2)n1` stands below 20%; under `CC(C)(C)NC(=O)N1CCC(c2nc(-c3ccc(F)cc3)no2)CC1`, below 20%. The same measure, in the same setting: the value for `Cc1noc(C2CCN(C(=O)NCc3ccccc3)CC2)n1` was below 20%.
